Measured values taken from patent US20260262643A1, “HERBICIDAL BENZOXAZINES” (FMC CORPORATION, priority 2022, published 2026).

Key:
soybean [1] = experiment: Test C preemergence; format: in vivo, Glycine max; details: for Plant response rating, Soybean: Preemergence; for Soybean plant response rating: preemergence
How it was run: (§1)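 Seeds in loam–sand blend received preemergence directed soil spray of test chemicals in non-phytotoxic solvent with surfactant; postemergence treatment was applied at one- to two-leaf stage (2–10 cm). After 10 days in greenhouse, injury rated visually versus untreated controls, 0 (no effect) to 100 (complete control).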

corn [2] = experiment: Test C postemergence; format: in vivo, Zea mays; details: 10 days
How it was run: as §1

ragweed [3] = experiment: Test C preemergence; format: in vivo, Ambrosia artemisiifolia; details: for Plant response rating, Ragweed: Preemergence; for Ragweed plant response rating: preemergence
How it was run: as §1

ragweed [4] = experiment: Test C postemergence; format: in vivo, Ambrosia artemisiifolia; details: 10 days
How it was run: as §1

blackgrass [5] = experiment: Test C preemergence; format: in vivo, Alopecurus myosuroides; details: for Plant response rating, Blackgrass: Preemergence; for Blackgrass plant response rating: preemergence
How it was run: as §1

ryegrass, Italian [6] = experiment: Test C postemergence; format: in vivo, Lolium multiflorum; details: 10 days
How it was run: as §1

wheat [7] = experiment: Test C preemergence; format: in vivo, Triticum aestivum; details: for Plant response rating, Wheat: Preemergence; for Wheat plant response rating: preemergence
How it was run: as §1

corn [8] = experiment: Test C preemergence; format: in vivo, Zea mays; details: for Plant response rating, Corn: Preemergence; for Corn plant response rating: preemergence
How it was run: as §1

pigweed, palmer [9] = experiment: Test C postemergence; format: in vivo, Amaranthus palmeri; details: 10 days
How it was run: as §1

sedge, umbrella = experiment: Test D flooded paddy test; format: in vivo, Cyperus difformis; details: 250 g ai/ha, applied to paddy water, visual rating after 13 to 14 days, scale 0 to 100 (0 no effect, 100 complete control)
How it was run: (§2)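 Plants grown to the 2-leaf stage; pots flooded to 3 cm above soil at treatment and held at that depth throughout. Test compounds applied directly to the paddy water. After 13 to 14 days in a greenhouse, response was rated visually versus controls on a 0 (no effect) to 100 (complete control) scale.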

kochia [10] = experiment: Test C preemergence; format: in vivo, Bassia scoparia; details: for Plant response rating, Kochia: Preemergence; for Kochia plant response rating: preemergence
How it was run: as §1

ducksalad = experiment: Test D flooded paddy test; format: in vivo, Heteranthera limosa; details: 250 g ai/ha, applied to paddy water, visual rating after 13 to 14 days, scale 0 to 100 (0 no effect, 100 complete control)
How it was run: as §2

oat, wild [11] = experiment: Test C preemergence; format: in vivo, Avena fatua; details: for Plant response rating, Oat, Wild: Preemergence; for Oat, Wild plant response rating: preemergence
How it was run: as §1

barnyardgrass [12] = experiment: Test C postemergence; format: in vivo, Echinochloa crusgalli; details: 10 days
How it was run: as §1

green foxtail [13] = experiment: Test C preemergence; format: in vivo, Setaria viridis; details: for Plant response rating, Foxtail, Green: Preemergence; for Foxtail, Green plant response rating: preemergence
How it was run: as §1

horseweed = experiment: Test C postemergence; format: in vivo, Erigeron canadensis; details: 10 days
How it was run: as §1

barnyardgrass [14] = experiment: Test C preemergence; format: in vivo, Echinochloa crusgalli; details: for Plant response rating, Barnyardgrass: Preemergence; for Barnyardgrass plant response rating: preemergence
How it was run: as §1

barnyardgrass [15] = experiment: Test D flooded paddy test; format: in vivo, Echinochloa crus-galli; details: 250 g ai/ha, applied to paddy water, visual rating after 13 to 14 days, scale 0 to 100 (0 no effect, 100 complete control)
How it was run: as §2

soybean [16] = experiment: Test C postemergence; format: in vivo, Glycine max; details: 10 days
How it was run: as §1

green foxtail [17] = experiment: Test C postemergence; format: in vivo, Setaria viridis; details: 10 days
How it was run: as §1

ryegrass, Italian [18] = experiment: Test C preemergence; format: in vivo, Lolium multiflorum; details: for Plant response rating, Ryegrass, Italian: Preemergence; for Ryegrass, Italian plant response rating: preemergence
How it was run: as §1

blackgrass [19] = experiment: Test C postemergence; format: in vivo, Alopecurus myosuroides; details: 10 days
How it was run: as §1

kochia [20] = experiment: Test C postemergence; format: in vivo, Bassia scoparia; details: 10 days
How it was run: as §1

galium = experiment: Test C postemergence; format: in vivo, Galium aparine; details: 10 days
How it was run: as §1

pigweed, palmer [21] = experiment: Test C preemergence; format: in vivo, Amaranthus palmeri; details: for Plant response rating, Pigweed, Palmer: Preemergence; for Pigweed, Palmer plant response rating: preemergence
How it was run: as §1

wheat [22] = experiment: Test C postemergence; format: in vivo, Triticum aestivum; details: 10 days
How it was run: as §1

oat, wild [23] = experiment: Test C postemergence; format: in vivo, Avena fatua; details: 10 days
How it was run: as §1

rice = experiment: Test D flooded paddy test; format: in vivo, Oryza sativa; details: 250 g ai/ha, applied to paddy water, visual rating after 13 to 14 days, scale 0 to 100 (0 no effect, 100 complete control)
How it was run: as §2

[24] = 500 g ai/ha, visual rating after 10 days, 0 to 100 scale (0 no effect, 100 complete control)
[25] = Test C, 125 g ai/ha, 0 to 100 scale (0 no effect, 100 complete control)
[26] = 125 g ai/ha, postemergence, 0 to 100 scale, 0 no effect, 100 complete control
[27] = Postemergence, 500 g ai/ha, visual 0 to 100 scale (0 no effect, 100 complete control)
[28] = 500 g ai/ha, 0 to 100 scale (0 no effect, 100 complete control)
[29] = 125 g ai/ha, 0 to 100 scale, 0 no effect, 100 complete control
[30] = 500 g ai/ha, postemergence, 0 to 100 scale (0 no effect, 100 complete control)
[31] = Postemergence, 125 g ai/ha, 0 to 100 scale (0 no effect, 100 complete control)

CC(C)=C(C)c1ncn(-c2cccc(C(=O)N3C[C@H](C)Oc4c(C)cccc43)c2)n1 [Compound 262]
80: Plant response rating, Corn (corn [2]; [27]) | Plant response rating, Ryegrass, Italian (ryegrass, Italian [6]; [26]) | Plant response rating, Kochia (kochia [10]; [24]) | Plant response rating, Oat, Wild (oat, wild [11]; [24]) | Plant response rating, Oat, Wild (oat, wild [23]; [27])
90: Plant response rating, Blackgrass (blackgrass [5]; [24]) | Plant response rating, Ryegrass, Italian (ryegrass, Italian [6]; [27]) | Plant response rating, Pigweed, Palmer (pigweed, palmer [9]; [27]) | Plant response rating, Barnyardgrass (barnyardgrass [12]; [27]) | Plant response rating, Barnyardgrass (barnyardgrass [14]; [24]) | Plant response rating, Foxtail, Green (green foxtail [17]; [27]) | Plant response rating, Ryegrass, Italian (ryegrass, Italian [18]; [24]) | Plant response rating, Blackgrass (blackgrass [19]; [27]) | Plant response rating, Kochia (kochia [20]; [27]) | Plant response rating, Pigweed, Palmer (pigweed, palmer [21]; [24])
40: Plant response rating, Ragweed (ragweed [4]; [26]) | Plant response rating, Corn (corn [8]; [24]) | Corn plant response rating (corn [8]; [25]) | Kochia plant response rating (kochia [10]; [25])
100: Plant response rating, Foxtail, Green (green foxtail [13]; [24]) | Foxtail, Green plant response rating (green foxtail [13]; [25]) | Plant response rating, Soybean (soybean [16]; [26]) | Plant response rating, Soybean (soybean [16]; [27]) | Plant response rating, Galium (galium; [26]) | Plant response rating, Galium (galium; [27])
70: Plant response rating, Soybean (soybean [1]; [24]) | Plant response rating, Ragweed (ragweed [4]; [27]) | Plant response rating, Wheat (wheat [7]; [24]) | Plant response rating, Pigweed, Palmer (pigweed, palmer [9]; [26]) | Plant response rating, Foxtail, Green (green foxtail [17]; [26]) | Ryegrass, Italian plant response rating (ryegrass, Italian [18]; [25]) | Pigweed, Palmer plant response rating (pigweed, palmer [21]; [25])
30: Soybean plant response rating (soybean [1]; [25]) | Plant response rating, Wheat (wheat [22]; [26])
50: Oat, Wild plant response rating (oat, wild [11]; [25]) | Plant response rating, Kochia (kochia [20]; [26]) | Plant response rating, Wheat (wheat [22]; [27])
10: Plant response rating, Horseweed (horseweed; [26]) | Plant response rating, Horseweed (horseweed; [27])
60: Plant response rating, Corn (corn [2]; [26]) | Plant response rating, Ragweed (ragweed [3]; [24]) | Blackgrass plant response rating (blackgrass [5]; [25]) | Plant response rating, Barnyardgrass (barnyardgrass [12]; [26]) | Barnyardgrass plant response rating (barnyardgrass [14]; [25]) | Plant response rating, Oat, Wild (oat, wild [23]; [26])
0: Ragweed plant response rating (ragweed [3]; [25]) | Plant response rating, Sedge, Umbrella (Flood) (sedge, umbrella) | Plant response rating, Ducksalad (Flood) (ducksalad) | Plant response rating, Barnyardgrass (Flood) (barnyardgrass [15]) | Plant response rating, Rice (Flood) (rice)
20: Wheat plant response rating (wheat [7]; [25])

Cc1ncn(-c2ccc(F)c(C(=O)N3C[C@H](C)Oc4c(C)cccc43)c2)n1 [Compound 361]
20: Plant response rating, Corn (corn [2]; [31]) | Plant response rating, Pigweed, Palmer (pigweed, palmer [9]; [31])
70: Ragweed plant response rating (ragweed [3]; [28]) | Wheat plant response rating (wheat [7]; [28]) | Plant response rating, Ducksalad (Flood) (ducksalad) | Plant response rating, Barnyardgrass (barnyardgrass [12]; [31]) | Plant response rating, Kochia (kochia [20]; [31])
15: Plant response rating, Rice (Flood) (rice)
95: Plant response rating, Sedge, Umbrella (Flood) (sedge, umbrella)
40: Plant response rating, Blackgrass (blackgrass [5]; [29]) | Plant response rating, Wheat (wheat [22]; [31])
50: Plant response rating, Corn (corn [2]; [30]) | Plant response rating, Ragweed (ragweed [3]; [29]) | Plant response rating, Wheat (wheat [7]; [29]) | Oat, Wild plant response rating (oat, wild [11]; [28])
100: Soybean plant response rating (soybean [1]; [28]) | Plant response rating, Soybean (soybean [1]; [29]) | Foxtail, Green plant response rating (green foxtail [13]; [28]) | Plant response rating, Foxtail, Green (green foxtail [13]; [29]) | Plant response rating, Soybean (soybean [16]; [30]) | Plant response rating, Soybean (soybean [16]; [31]) | Plant response rating, Galium (galium; [30]) | Plant response rating, Galium (galium; [31]) | Pigweed, Palmer plant response rating (pigweed, palmer [21]; [28])
80: Plant response rating, Ryegrass, Italian (ryegrass, Italian [6]; [31]) | Plant response rating, Kochia (kochia [10]; [29]) | Plant response rating, Barnyardgrass (barnyardgrass [14]; [29]) | Ryegrass, Italian plant response rating (ryegrass, Italian [18]; [28]) | Plant response rating, Ryegrass, Italian (ryegrass, Italian [18]; [29]) | Plant response rating, Blackgrass (blackgrass [19]; [31]) | Plant response rating, Kochia (kochia [20]; [30]) | Plant response rating, Wheat (wheat [22]; [30]) | Plant response rating, Oat, Wild (oat, wild [23]; [30])
30: Plant response rating, Barnyardgrass (Flood) (barnyardgrass [15]) | Plant response rating, Oat, Wild (oat, wild [23]; [31])
90: Plant response rating, Ryegrass, Italian (ryegrass, Italian [6]; [30]) | Kochia plant response rating (kochia [10]; [28]) | Plant response rating, Barnyardgrass (barnyardgrass [12]; [30]) | Barnyardgrass plant response rating (barnyardgrass [14]; [28]) | Plant response rating, Foxtail, Green (green foxtail [17]; [30]) | Plant response rating, Foxtail, Green (green foxtail [17]; [31]) | Plant response rating, Blackgrass (blackgrass [19]; [30]) | Plant response rating, Pigweed, Palmer (pigweed, palmer [21]; [29])
0: Plant response rating, Corn (corn [8]; [29]) | Plant response rating, Oat, Wild (oat, wild [11]; [29]) | Plant response rating, Horseweed (horseweed; [31])
60: Plant response rating, Ragweed (ragweed [4]; [30]) | Plant response rating, Ragweed (ragweed [4]; [31]) | Blackgrass plant response rating (blackgrass [5]; [28]) | Plant response rating, Pigweed, Palmer (pigweed, palmer [9]; [30])
10: Corn plant response rating (corn [8]; [28]) | Plant response rating, Horseweed (horseweed; [30])
